In PubChem BioAssay AID2060892 (Molecular Pharmacology Branch, DTP, NCI, 2025):

Tested on: HOP-62 complex spheroids with HUVEC/MSC, viability
Test: Anticancer human tumor HOP-62 cell line growth inhibition [RAS];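 note: spheroids exposed to agents for seven days before readout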;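 for viability, T/C: 100% = DMSO vehicle control viability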
Conditions: for IC50: curve of first compound; for viability, T/C: stronger effect = lower value
Excerpt: RAS pathway inhibitors in Combinations in Complex Spheroids
A high-throughput screen of multi-cell type tumor spheroids was designed to identify active combinations of RAS pathway inhibitors and targeted small molecules. Complex spheroids include a stromal component modeled by human endothelial cells (HUVEC) and fibroblasts modeled by human mesenchymal stem cells (MSCs). The concentration ranges selected for each drug and investigational agent were based upon clinically achievable concentrations if the clinical Cmax of the agent was known.
Compounds. The drugs and investigational agents: abemaciclib (NSC768073), cobimetinib (NSC768068), divarasib (GDC6063, NSC841802), docetaxel (NSC628503), GDC-1971 (RLY-1971, NSC841576), gemcitabine (NSC613327), inavolisib (NSC800729), ipatasertib (NSC767898), KB-0742 (NSC834161), MRTX-1133 (NSC836407), osimertinib (NSC779217), RMC-4630 (NSC839698), RMC-6236 (NSC851965), RMC-6291 (NSC852671), Ro-3306 (NSC812927), sapanisertib (NSC764658), SN-38 (NSC673596), staurosporine (NSC755774), SY5609 (NSC837396), and tovorafenib (DAY101, NSC766906), were obtained from the National Cancer Institute (NCI) Developmental Therapeutics Program Chemical Repository. The FDA-approved anticancer drug set is available from the NCI Developmental Therapeutics Program. […] The stock solutions were prepared in dimethyl sulfoxide (DMSO, Sigma-Aldrich, St. Louis, MO, cat. D2650) at 800-fold the tested concentration and stored at -70 degrees C prior to their use. All drugs and investigational agents were tested over a range starting from a high concentration at or near the clinical Cmax and decreasing in half-log increments. If the clinical Cmax for an agent had not been determined, the highest concentration tested was 10 microM.
Cell Culture. All cells were maintained in an incubator at 37 degrees C and 5% CO2 with 95% humidity. The PDC lines were cultured according to standard operating procedures established by the NCI PDMR. All PDCs were thawed and cultured in Matrigel-coated flasks prepared with a working solution of 1X Ham's F-12 nutrient mix, without supplementation (Invitrogen, Waltham, MA, cat. 11765054), 100 U/mL penicillin-streptomycin (Invitrogen, cat. 15140122), and 2.5% Matrigel (Corning Inc., Corning, NY, cat. 354248) for the first three passages. The 362531-283-R-J2-PDC and 782815-120-R-J1-PDC lines were cultured in 6C/Colon 1B media, which includes advanced DMEM/F-12 (Thermo Fisher Scientific, cat. 12634028), 10 mM HEPES (Thermo Fisher Scientific, cat. 15630080), 1X GlutaMAX supplement (Thermo Fisher Scientific, cat. 35050061), 0.1 mg/mL primocin (InvivoGen, San Diego, CA, cat. ant-pm-2), 10% defined fetal bovine serum, heat inactivated (HyClone Laboratories Inc., Logan, UT, cat. SH30070.03HI), 50% L-WRN conditioned media (ATCC, cat. CRL-3276), 1.25 mM N-Acetyl-L-cysteine (Sigma-Aldrich, cat. A9165), 10 mM nicotinamide (Sigma-Aldrich, cat. N0636), 1X B-27 supplement (Thermo Fisher Scientific, cat. 17504044), 1X N-2 supplement (Thermo Fisher Scientific, cat. 17502048), 50 ng/mL human EGF (Thermo Fisher Scientific, cat. PHG0311), and 10 microM Y-27632 dihydrochloride (Tocris Bioscience, cat. 1254). The K12877-001-R-J1-PDC line was cultured in 6I media, which includes all 6C/Colon 1B media plus 10 ng/mL human FGF-10 (PeproTech, cat. 100-26), 1 ng/mL human FGF-2 (PeproTech, cat. 100-18B), 1 µM prostaglandin E2 (Tocris Bioscience, cat. 2296), […] hydrocortisone (Sigma-Aldrich, cat. H4001), and […] bovine insulin (Sigma-Aldrich, cat. I6634). The K86415-001-R-J1-PDC line was cultured in 6D media, which includes all 6C/Colon 1B media components minus the L-WRN conditioned media. The 485176-168-R4-J1-PDC was cultured in PANC media, which includes all 6C/Colon 1B media plus 100 ng/mL human FGF-10 (PeproTech, cat. 100-26), 500 nM SB-431542 (Selleckchem, cat. S1067), and 10 nM gastrin (Tocris Bioscience, cat. 3006). […]

[1] = second compound 0.0316 µM, first compound 0.0316 µM
[2] = second compound 0.0316 µM, first compound 0.1 µM
[3] = second compound 0.0316 µM, first compound 0.316 µM
[4] = second compound 0.0316 µM, first compound 1 µM
[5] = second compound 0.0316 µM, first compound 3.16 µM
[6] = second compound 0.0316 µM, first compound 10 µM
[7] = second compound 0.1 µM, first compound 0.0316 µM
[8] = second compound 0.1 µM, first compound 0.1 µM
[9] = second compound 0.1 µM, first compound 0.316 µM
[10] = second compound 0.1 µM, first compound 1 µM
[11] = second compound 0.1 µM, first compound 3.16 µM
[12] = second compound 0.1 µM, first compound 10 µM
[13] = second compound 0.316 µM, first compound 0.0316 µM
[14] = second compound 0.316 µM, first compound 0.1 µM
[15] = second compound 0.316 µM, first compound 0.316 µM
[16] = second compound 0.316 µM, first compound 1 µM
[17] = second compound 0.316 µM, first compound 3.16 µM
[18] = second compound 0.316 µM, first compound 10 µM
[19] = second compound 1 µM, first compound 0.0316 µM
[20] = second compound 1 µM, first compound 0.1 µM
[21] = second compound 1 µM, first compound 0.316 µM
[22] = second compound 1 µM, first compound 1 µM
[23] = second compound 1 µM, first compound 3.16 µM
[24] = second compound 1 µM, first compound 10 µM
[25] = second compound 3.16 µM, first compound 0.0316 µM
[26] = second compound 3.16 µM, first compound 0.1 µM
[27] = second compound 3.16 µM, first compound 0.316 µM
[28] = second compound 3.16 µM, first compound 1 µM
[29] = second compound 3.16 µM, first compound 3.16 µM
[30] = second compound 3.16 µM, first compound 10 µM
[31] = second compound 10 µM, first compound 0.0316 µM
[32] = second compound 10 µM, first compound 0.1 µM
[33] = second compound 10 µM, first compound 0.316 µM
[34] = second compound 10 µM, first compound 1 µM
[35] = second compound 10 µM, first compound 3.16 µM
[36] = second compound 10 µM, first compound 10 µM

`Cc1nc(N2CCC3(CC2)COC(C)C3N)c(CO)nc1Sc1ccnc(N)c1Cl` (stereo unspecified) + C#Cc1c(F)ccc2cc(O)cc(-c3ncc4c(N5CC6CCC(C5)N6)nc(OCC56CCCN5CC(F)C6)nc4c3F)c12 showed an IC50 (second compound 0.0316 µM) of over 10000 nM, an IC50 (second compound 0.1 µM) of over 10000 nM and an IC50 (second compound 0.316 µM) of 3110 nM. It also gave an IC50 (second compound 1 µM) of 669 nM, an IC50 (second compound 3.16 µM) of 113 nM and an IC50 (second compound 10 µM) of under 31.6 nM. The viability, T/C [1] was 105%, the viability, T/C [2] was 112% and the viability, T/C [3] was 96.6%. For the same compound, the viability, T/C [4] was 82.5%, the viability, T/C [5] was 70.5% and the viability, T/C [6] was 64.8%. It also gave a viability, T/C [7] of 117%, a viability, T/C [8] of 97.7% and a viability, T/C [9] of 84.9%. The viability, T/C [10] was 79.1%, the viability, T/C [11] was 67.1% and the viability, T/C [12] was 48.5%. For the same compound, the viability, T/C [13] was 108%, the viability, T/C [14] was 97.6% and the viability, T/C [15] was 82.4%. The viability, T/C [16] was 64.8%, the viability, T/C [17] was 51.1% and the viability, T/C [18] was 34.5%. It also gave a viability, T/C [19] of 101%, a viability, T/C [20] of 79.5% and a viability, T/C [21] of 61.3%. For the same compound, the viability, T/C [22] was 46.6%, the viability, T/C [23] was 28.1% and the viability, T/C [24] was 25.6%. The viability, T/C [25] was 64.3%, the viability, T/C [26] was 51.3% and the viability, T/C [27] was 38.1%. The viability, T/C [28] was 27.1%, the viability, T/C [29] was 16.8% and the viability, T/C [30] was 11.2%. It also gave a viability, T/C [31] of 36.7%, a viability, T/C [32] of 32.4% and a viability, T/C [33] of 19.5%. It also gave a viability, T/C [34] of 10.1%, a viability, T/C [35] of 8.04% and a viability, T/C [36] of 8.15%.
Compound `NC1c2ccccc2OC12CCN(c1cnc3c(N4CCCc5ncccc54)n[nH]c3n1)CC2` (stereo unspecified) + C#Cc1c(F)ccc2cc(O)cc(-c3ncc4c(N5CC6CCC(C5)N6)nc(OCC56CCCN5CC(F)C6)nc4c3F)c12 has an IC50 (second compound 0.0316 µM) of 1820 nM, an IC50 (second compound 0.1 µM) of 772 nM and an IC50 (second compound 0.316 µM) of 330 nM. The IC50 (second compound 1 µM) was 71.1 nM, the IC50 (second compound 3.16 µM) was under 31.6 nM and the IC50 (second compound 10 µM) was under 31.6 nM. For the same compound, the viability, T/C [1] was 103%, the viability, T/C [2] was 80.8% and the viability, T/C [3] was 73.7%. It also gave a viability, T/C [4] of 57.2%, a viability, T/C [5] of 45.7% and a viability, T/C [6] of 26.6%. It also gave a viability, T/C [7] of 92.4%, a viability, T/C [8] of 91.4% and a viability, T/C [9] of 61.5%. The viability, T/C [10] was 49.9%, the viability, T/C [11] was 28.6% and the viability, T/C [12] was 27.1%. For the same compound, the viability, T/C [13] was 90.9%, the viability, T/C [14] was 76.7% and the viability, T/C [15] was 49.8%. The viability, T/C [16] was 29.9%, the viability, T/C [17] was 22.3% and the viability, T/C [18] was 15.1%. For the same compound, the viability, T/C [19] was 60.2%, the viability, T/C [20] was 45.7% and the viability, T/C [21] was 29.7%. The viability, T/C [22] was 19.3%, the viability, T/C [23] was 13.8% and the viability, T/C [24] was 12.7%. For the same compound, the viability, T/C [25] was 40.9%, the viability, T/C [26] was 20.9% and the viability, T/C [27] was 15.6%. For the same compound, the viability, T/C [28] was 11.8%, the viability, T/C [29] was 10.8% and the viability, T/C [30] was 12.2%. It also gave a viability, T/C [31] of 16.2%, a viability, T/C [32] of 11% and a viability, T/C [33] of 7.6%. The viability, T/C [34] was 8.99%, the viability, T/C [35] was 8.52% and the viability, T/C [36] was 17.5%.
`Nc1ccn(C2OC(CO)C(O)C2(F)F)c(=O)n1` (stereo unspecified) + C#Cc1c(F)ccc2cc(O)cc(-c3ncc4c(N5CC6CCC(C5)N6)nc(OCC56CCCN5CC(F)C6)nc4c3F)c12 showed an IC50 (second compound 0.0316 µM) of 6.38 nM, an IC50 (second compound 0.1 µM) of 5.77 nM and an IC50 (second compound 0.316 µM) of 5.94 nM. It also gave an IC50 (second compound 1 µM) of 5.32 nM, an IC50 (second compound 3.16 µM) of 4.58 nM and an IC50 (second compound 10 µM) of under 3.16 nM. The viability, T/C (second compound 0.0316 µM, first compound 0.00316 µM) was 107%, the viability, T/C (second compound 0.0316 µM, first compound 0.01 µM) was 13.4% and the viability, T/C [1] was 5.94%. It also gave a viability, T/C [2] of 5.61%, a viability, T/C [3] of 4.99% and a viability, T/C [4] of 6.52%. The viability, T/C (second compound 0.1 µM, first compound 0.00316 µM) was 92.4%, the viability, T/C (second compound 0.1 µM, first compound 0.01 µM) was 11.2% and the viability, T/C [7] was 8.15%. For the same compound, the viability, T/C [8] was 4.9%, the viability, T/C [9] was 5.5% and the viability, T/C [10] was 6.42%. It also gave a viability, T/C (second compound 0.316 µM, first compound 0.00316 µM) of 97.4%, a viability, T/C (second compound 0.316 µM, first compound 0.01 µM) of 10.9% and a viability, T/C [13] of 4.88%. It also gave a viability, T/C [14] of 4.68%, a viability, T/C [15] of 4.42% and a viability, T/C [16] of 4.04%. The viability, T/C (second compound 1 µM, first compound 0.00316 µM) was 83.7%, the viability, T/C (second compound 1 µM, first compound 0.01 µM) was 9.09% and the viability, T/C [19] was 4.77%. It also gave a viability, T/C [20] of 4.48%, a viability, T/C [21] of 3.43% and a viability, T/C [22] of 3.47%. The viability, T/C (second compound 3.16 µM, first compound 0.00316 µM) was 67.8%, the viability, T/C (second compound 3.16 µM, first compound 0.01 µM) was 12.5% and the viability, T/C [25] was 5.06%. It also gave a viability, T/C [26] of 4.31%, a viability, T/C [27] of 5.01% and a viability, T/C [28] of 4.23%. For the same compound, the viability, T/C (second compound 10 µM, first compound 0.00316 µM) was 39.5%, the viability, T/C (second compound 10 µM, first compound 0.01 µM) was 12.1% and the viability, T/C [31] was 8.09%. For the same compound, the viability, T/C [32] was 6.92%, the viability, T/C [33] was 8.08% and the viability, T/C [34] was 6.83%.
